# Article PMC2360155, “Novel retinoic acid metabolism blocking agents have potent inhibitory activities on human breast cancer cells and tumour growth” (British Journal of Cancer, 2007)
# Assays:
# MCF-7 tumour xenografts [1] = test: In vivo antitumour study, ATRA and VN/14-1 alone or in combination, MCF-7 tumour xenografts; parameters: species or system ovariectomised female athymic nude mice; conditions: single agents: ATRA 33.0, VN/14-1 16.5 μmol kg^−1 day^−1; 36 days
# Procedure: The second experiment was similar to that described above, but consisted of only four groups. When the tumour volume has reached about 100 mm^3, the mice were randomly divided in to four groups of five mice each. […] These treatments continued for 36 days and the tumours were measured and processed as described above.
# Procedure was similar to that described in Figure 8A.
# MCF-7 tumour xenografts [2] = test: In vivo antitumour study, established MCF-7 tumour xenografts; conditions: for Reduction in mean tumour volume compared with vehicle control / Reduction in mean tumour volume compared with the ATRA group (10 mg kg^−1 day^−1): 6 weeks; for Antitumour effect relative to ATRA / 4-HPR (33.0 μmol kg^−1 day^−1), in words: VN/14-1 16.5 μmol kg^−1 day^−1, VN/66-1 66.0 μmol kg^−1 day^−1
# Procedure: All the animal studies were performed according to the guidelines and approval of the Animal Care Committee of the University of Maryland, School of Medicine. Ovariectomised female athymic nude 4–6-week-old mice were used. […] Ovariectomised mice were then inoculated with MCF-7 cells (2 × 10^6 cells in Matrigel per tumour growth site) subcutaneously (s.c.) on the right and left flank. Tumour volumes were measured weekly with calipers. […] Retinoic acid metabolism blocking agents were formulated in 0.3% HPC (hydroxy propyl cellulose). […] Compounds were injected continuously for three days with a drug holiday of one day after every 3 days of treatment. Twice per week, the mice were weighed and tumours were measured using a caliper. Tumour volume was calculated according to the formula 4/3πr1^2r2 (r1<r2). The tumour treatment study was continued for 6 weeks. At the end of 6 weeks, mice were killed and blood plasma, as well as tumours, were collected, weighed and stored at −80°C until analysis.
# Female ovariectomised nude mice bearing established MCF-7 tumour xenografts (200–300 mm^3) were grouped so that the mean tumour volume was similar for each group. […] Tumour sizes were measured twice a week after the start of treatment.
# Ovariectomised female athymic nude 4–6-week-old mice were used. Oestrogen pellets (1.7 mg per pellet, 90 day release obtained from Innovative Research of America) were implanted in the mice using a trochar to facilitate tumour growth. Mice were then inoculated with MCF-7 cells (2 × 10^6 cells in Matrigel per tumour growth site) s.c. on the right and left flank. Tumours were allowed to grow for about 4–5 weeks till they were of measurable size (200–300 mm^3). The mice were then grouped as control and treatment groups. Twice every week the mice were weighed and tumours were measured using a caliper. Tumour volume was calculated according to the formula 4/3πr1^2r2 (r1<r2). The tumour treatment study was continued for 6 weeks. […] Mice were weighed twice every week during the 6-week antitumour study.
# RARγ = target: T1, RARγ (Mus musculus, UniProt P18911); test: Transactivation assay (RARE-CAT reporter, CV-1 cells), RARγ; type: cell-based; conditions: 50% of maximal activity obtained with 10^−6 M all-trans-RA
# T1 construct: expressed in transfected cells; host or cells: CV-1 cells
# T1 sequence (P18911 1-458): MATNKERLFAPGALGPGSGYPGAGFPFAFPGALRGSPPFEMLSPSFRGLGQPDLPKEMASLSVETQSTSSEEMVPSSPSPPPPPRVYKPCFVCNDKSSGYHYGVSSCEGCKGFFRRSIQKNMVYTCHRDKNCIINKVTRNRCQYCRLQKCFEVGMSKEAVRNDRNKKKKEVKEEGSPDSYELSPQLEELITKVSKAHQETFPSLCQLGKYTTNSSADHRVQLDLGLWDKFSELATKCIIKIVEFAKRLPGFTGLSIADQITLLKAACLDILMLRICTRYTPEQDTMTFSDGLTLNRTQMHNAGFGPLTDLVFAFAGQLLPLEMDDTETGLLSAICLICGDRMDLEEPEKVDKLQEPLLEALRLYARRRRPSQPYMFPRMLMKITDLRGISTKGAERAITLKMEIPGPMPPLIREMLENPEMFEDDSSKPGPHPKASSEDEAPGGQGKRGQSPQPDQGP
# Procedure: Briefly, CV-1 cells were cotransfected with 4 μg RAR subtype (RARα, RARβ or RARγ) expression vector construct in pSG5, 4 μg RARE-CAT reporter DNA and 1 μg pCMV-β-gal DNA. Twenty-four hours following transfection, the cells were treated with various concentrations of each RAMBA ranging from 10^−11–10^−5 M along with an ethanol carrier control. Additional cells were treated with 10^−6 M all-trans-RA for normalisation. Twenty-four hours later, the cells were harvested and CAT and β-gal activities were assayed.
Structure (SMILES),Tumour growth inhibition compared with controls (in words) (MCF-7 tumour xenografts [1]),Reduction in mean tumour volume compared with vehicle control (MCF-7 tumour xenografts [2]; 16.5 μmol kg^−1 day^−1 s.c.) [%],Reduction in mean tumour volume compared with the ATRA group (10 mg kg^−1 day^−1) (MCF-7 tumour xenografts [2]; 33.0 μmol kg^−1 day^−1 s.c.) [%],Reduction in mean tumour volume compared with vehicle control (MCF-7 tumour xenografts [2]; 33.0 μmol kg^−1 day^−1 s.c.) [%],Reduction in mean final tumour weight compared with mice receiving vehicle alone (MCF-7 tumour xenografts [2]; 66.0 μmol kg^−1 day^−1) [%],Reduction in mean tumour volume compared with the ATRA group (10 mg kg^−1 day^−1) (MCF-7 tumour xenografts [2]; 66.0 μmol kg^−1 day^−1 s.c.) [%],Reduction in mean tumour volume compared with vehicle control (MCF-7 tumour xenografts [2]; 66.0 μmol kg^−1 day^−1 s.c.) [%],"Antitumour effect relative to ATRA / 4-HPR (33.0 μmol kg^−1 day^−1), in words (MCF-7 tumour xenografts [2])","Tumour regression in the antitumour efficacy studies (MCF-7 tumour xenografts [2]; mouse, in vivo)",EC50 (RARγ) [µM]
"CC1=C(/C=C/C(C)=C/C=C/C(C)=C/C(=O)O)C(C)(C)CCC1 [ATRA, all-trans-retinoic acid, reference compound]",modest tumour growth inhibition,,,,,,,,,
CC1=C(/C=C/C(C)=C/C=C/C(C)=C/C(=O)O)C(C)(C)CCC1n1ccnc1 (centres unmarked) [VN/14-1],modest tumour growth inhibition,66.5,45,79.4,92.6,75.61,92.6,comparable with the antitumour effect of ATRA or 4-HPR,did not cause any tumour regressions,1
CC1=C(/C=C/C(C)=C/C=C/C(C)=C/C(=O)Nc2ccc(O)cc2)C(C)(C)CCC1n1ccnc1 (centres unmarked) [VN/66-1],,,,,,,,not better than ATRA,,> 10
CC1=C(/C=C/C(C)=C/C=C/C(C)=C\C(=O)Nc2ccc(O)cc2)C(C)(C)CCC1n1ccnc1 (centres unmarked) [VN/69-1],,,,,,,,,,> 10
